{"source": "paper PMC12173503", "about": "“Enterohaemorrhagic Escherichia coli AdhE spirosome length correlates with enzymatic directionality and is perturbed by salicylidene acylhydrazides” (Open Biology, 2025)", "key": {"[1]": {"molecular_target": "T1, AdhE (6-His-AdhE) (Escherichia coli, UniProt P0A9Q7)", "T1 sequence (P0A9Q7 whole entry)": "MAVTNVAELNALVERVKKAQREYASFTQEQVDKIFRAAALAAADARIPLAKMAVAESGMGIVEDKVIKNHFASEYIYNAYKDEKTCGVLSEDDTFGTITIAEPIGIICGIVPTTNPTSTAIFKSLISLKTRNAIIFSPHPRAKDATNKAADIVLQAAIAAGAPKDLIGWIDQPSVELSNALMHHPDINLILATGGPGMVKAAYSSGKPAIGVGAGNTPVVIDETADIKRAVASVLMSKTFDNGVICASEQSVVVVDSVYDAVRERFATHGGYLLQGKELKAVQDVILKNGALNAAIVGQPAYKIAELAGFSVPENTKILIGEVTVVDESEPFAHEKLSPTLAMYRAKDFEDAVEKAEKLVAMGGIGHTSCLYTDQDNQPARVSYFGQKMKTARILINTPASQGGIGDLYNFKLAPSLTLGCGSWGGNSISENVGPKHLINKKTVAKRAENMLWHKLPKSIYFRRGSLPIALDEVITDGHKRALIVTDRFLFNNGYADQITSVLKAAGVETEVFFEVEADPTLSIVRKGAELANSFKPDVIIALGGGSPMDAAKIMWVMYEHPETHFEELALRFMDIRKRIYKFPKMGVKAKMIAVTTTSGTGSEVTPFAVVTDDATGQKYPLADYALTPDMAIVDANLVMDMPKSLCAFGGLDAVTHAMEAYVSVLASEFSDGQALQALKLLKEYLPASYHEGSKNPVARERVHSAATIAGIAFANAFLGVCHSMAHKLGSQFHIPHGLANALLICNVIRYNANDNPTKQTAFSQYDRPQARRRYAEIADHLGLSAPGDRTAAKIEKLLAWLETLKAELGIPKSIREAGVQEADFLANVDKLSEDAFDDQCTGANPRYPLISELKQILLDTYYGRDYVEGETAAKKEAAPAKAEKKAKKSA", "test": "NADH consumption at […] nm", "format": "biochemical", "design": "full-length AdhE, N-terminal 6-His tag kept, pET28a, expressed in E. coli BL21(DE3); spirosome oligomers, SEC fractions F12 (long) and F24 (short)", "conditions": "forward reaction; 200 μM acetyl-CoA, 250 μM NADH, 20 μM FeSO4, 250 mM NaCl, 50 mM Tris-HCl pH 8.0, 37 °C"}, "[2]": {"molecular_target": "T1, AdhE (6-His-AdhE)", "conditions": "reverse reaction; 200 mM ethanol, 500 μM NAD+, 200 μM CoASH, 20 μM FeSO4, 250 mM NaCl, 50 mM Tris-HCl pH 8.0, 37 °C"}}, "data": [{"molecule": "CC(=O)SCCNC(=O)CCNC(=O)[C@H](O)C(C)(C)COP(=O)(O)OP(=O)(O)OC[C@H]1O[C@@H](n2cnc3c(N)ncnc32)[C@H](O)[C@@H]1OP(=O)(O)O", "note": "[acetyl-CoA]", "values": [{"measurement": "NADH consumption at 340 nm", "setting": "[1]", "result": "F12 or F24 was incubated with acetyl-CoA in the presence of NADH"}]}, {"molecule": "CCO", "note": "[ethanol]", "values": [{"measurement": "NADH production at 340 nm", "setting": "[2]", "result": "F12 or F24 was incubated with ethanol, NAD^+ and CoASH"}]}]}
